According to patent publication US20100204182A1, “ECTONUCLEOTIDASE INHIBITORS” (RHEINISCHE FRIEDRICH-WILHELMS-UNIVERSITAT BONN, priority 2006, published 2010):
Read-outs that look alike come from different tables or passages of the source.

Key:
[1] = target: T1, human NTPDase1 (Homo sapiens, UniProt P49961); assay: NTPDase inhibition assay by capillary electrophoresis (CE), NTPDase1; type: biochemical; details: ATP 320 μM; for inhibition at 1000 µM: 1 mM compound; for Ki: CE method, Km 17 μM, read-out: NTPDase1 Ki [μM] ± SEM
T1 sequence (P49961 1-510): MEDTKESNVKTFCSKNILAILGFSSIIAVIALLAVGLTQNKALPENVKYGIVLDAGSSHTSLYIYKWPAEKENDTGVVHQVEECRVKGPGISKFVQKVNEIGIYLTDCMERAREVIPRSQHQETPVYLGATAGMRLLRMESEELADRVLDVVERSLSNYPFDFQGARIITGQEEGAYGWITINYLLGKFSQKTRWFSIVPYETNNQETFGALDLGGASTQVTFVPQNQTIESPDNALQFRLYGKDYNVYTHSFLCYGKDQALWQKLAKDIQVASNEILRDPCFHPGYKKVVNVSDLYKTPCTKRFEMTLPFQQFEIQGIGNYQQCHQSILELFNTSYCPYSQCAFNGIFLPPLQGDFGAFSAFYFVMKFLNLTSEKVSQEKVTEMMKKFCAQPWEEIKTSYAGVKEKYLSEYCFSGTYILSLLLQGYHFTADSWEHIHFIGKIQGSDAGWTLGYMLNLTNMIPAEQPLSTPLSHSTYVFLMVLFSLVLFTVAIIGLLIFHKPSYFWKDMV
Protocol: (§1) The applied enzyme inhibition assay has been described (Iqbal J, Vollmayer P, Braun N, Zimmermann H, Müller C E. A capillary electrophoresis method for the characterization of ecto-nucleoside triphosphate diphosphohydrolases (NTPDases) and the analysis of inhibitors by in-capillary enzymatic microreaction. Purinergic Signalling 2005, 1, 349-358).
(§2) A. CE instrumentation: All experiments were carried out using a P/ACE MDQ capillary electrophoresis system (Beckman Instruments, Fullerton, Calif., USA) equipped with a UV detection system coupled with a diode-array detector (DAD). Data collection and peak area analysis were performed by the P/ACE MDQ software 32 KARAT obtained from Beckman Coulter. The capillary temperature was kept constant at 25° C. The temperature of the sample storing unit was also adjusted to 25° C. The electrophoretic separations were carried out using an eCAP polyacrylamide-coated fused-silica capillary [(30 cm (20 cm effective length)×50 μm internal diameter (I.D.)×360 μm outside diameter (O.D.), obtained from CS-Chromatographie (Langerwehe, Germany)]. The separation was performed using an applied current of −60 μA and a data acquisition rate of 8 Hz. Analytes were detected using direct UV absorbance at 210 nm. The capillary was conditioned by rinsing with water for 2 min and subsequently with buffer (phosphate 50 mM, pH 6.5) for 1 min. Sample injections were made at the cathodic side of the capillary.
(§3) B. NTPDase inhibition assay by capillary electrophoresis: Enzyme inhibition assays were carried out at 37° C. in a final volume of 100 μl. The reaction mixture contained 320 μM of ATP (substrate) in reaction buffer. The reaction buffer contained 140 mM NaCl, 5 mM KCl, 1 mM MgCl2, 2 mM CaCl2, and 10 mM Hepes, pH 7.4.
(§4) Different concentrations of inhibitors dissolved in DMSO or water (10 μl) were added and the reaction was initiated by the addition of 10 μl of the appropriately diluted recombinant or native human or rat NTPDase enzyme. […] The mixture (final volume 100 μl) was incubated for 15 min and terminated by heating at 99° C. for 4 min. Aliquots of the reaction mixture (50 μl) were then transferred to mini-CE vials and injected into the CE instrument under the conditions described above. 20 μM of UMP was used as internal standard. Inhibition of NTPDase was tested over a range of 6 to 8 concentrations of test compound spanning 3 orders of magnitude to determine K1 values. Each analysis was repeated two times (in triplicates) in two separate experiments. The Cheng-Prusoff equation was used to calculate the K1 values from the IC50 values, determined by the non-linear curve fitting program PRISM® 3.0 (GraphPad, San Diego, Calif., USA). In table 1K, values of selected compounds as inhibitors of human NTPDases are given.

[2] = target: T2, human NTPDase2 (Homo sapiens, UniProt Q9Y5L3); assay: NTPDase inhibition assay by capillary electrophoresis (CE), NTPDase2; type: biochemical; details: human NTPDase2; CE method; ATP 320 μM; Km 70 μM; read-out: NTPDase2 Ki [μM] ± SEM
T2 sequence (Q9Y5L3 1-495): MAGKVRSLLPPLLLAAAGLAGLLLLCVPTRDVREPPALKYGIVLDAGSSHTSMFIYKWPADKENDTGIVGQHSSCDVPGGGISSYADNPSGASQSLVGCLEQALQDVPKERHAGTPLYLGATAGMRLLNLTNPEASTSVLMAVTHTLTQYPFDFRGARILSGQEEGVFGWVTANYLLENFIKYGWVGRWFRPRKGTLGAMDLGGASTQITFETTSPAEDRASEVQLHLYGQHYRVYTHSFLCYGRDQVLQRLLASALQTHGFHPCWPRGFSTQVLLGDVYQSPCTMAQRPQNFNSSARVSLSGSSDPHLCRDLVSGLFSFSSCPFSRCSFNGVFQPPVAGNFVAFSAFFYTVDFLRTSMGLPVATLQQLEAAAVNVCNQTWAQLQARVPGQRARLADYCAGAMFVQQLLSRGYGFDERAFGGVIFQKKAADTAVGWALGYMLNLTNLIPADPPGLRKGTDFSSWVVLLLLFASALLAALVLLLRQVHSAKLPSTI

[3] = target: T3, human NTPDase3 (Homo sapiens, UniProt O75355); assay: NTPDase inhibition assay by capillary electrophoresis (CE), NTPDase3; type: biochemical; details: ATP 320 μM; for inhibition at 1000 µM: 1 mM compound; for Ki: CE method, Km 75 μM, read-out: NTPDase3 Ki [μM] ± SEM
T3 sequence (O75355 1-529): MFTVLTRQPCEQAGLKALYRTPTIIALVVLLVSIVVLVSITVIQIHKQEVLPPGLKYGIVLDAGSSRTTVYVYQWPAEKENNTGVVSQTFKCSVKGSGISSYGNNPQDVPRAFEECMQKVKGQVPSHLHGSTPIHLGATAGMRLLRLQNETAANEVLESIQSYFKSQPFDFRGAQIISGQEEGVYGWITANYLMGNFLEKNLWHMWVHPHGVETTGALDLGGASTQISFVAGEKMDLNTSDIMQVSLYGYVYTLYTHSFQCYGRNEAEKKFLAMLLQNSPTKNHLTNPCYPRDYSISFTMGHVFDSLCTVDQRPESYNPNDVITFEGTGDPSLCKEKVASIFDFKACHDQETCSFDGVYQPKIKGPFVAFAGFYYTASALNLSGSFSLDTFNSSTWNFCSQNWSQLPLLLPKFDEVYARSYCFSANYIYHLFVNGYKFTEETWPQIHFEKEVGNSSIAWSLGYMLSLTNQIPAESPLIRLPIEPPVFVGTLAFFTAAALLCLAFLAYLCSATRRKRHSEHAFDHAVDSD
Protocol: as §1, §2, §3, §4

[4] = target: T4, human NTPDase8 (Homo sapiens, UniProt Q5MY95); assay: NTPDase inhibition assay by capillary electrophoresis (CE), NTPDase8; type: biochemical; details: for inhibition at 1000 µM: 1 mM compound; for Ki: read-out: NTPDase8 Ki [μM] ± SEM
T4 sequence (Q5MY95 1-495): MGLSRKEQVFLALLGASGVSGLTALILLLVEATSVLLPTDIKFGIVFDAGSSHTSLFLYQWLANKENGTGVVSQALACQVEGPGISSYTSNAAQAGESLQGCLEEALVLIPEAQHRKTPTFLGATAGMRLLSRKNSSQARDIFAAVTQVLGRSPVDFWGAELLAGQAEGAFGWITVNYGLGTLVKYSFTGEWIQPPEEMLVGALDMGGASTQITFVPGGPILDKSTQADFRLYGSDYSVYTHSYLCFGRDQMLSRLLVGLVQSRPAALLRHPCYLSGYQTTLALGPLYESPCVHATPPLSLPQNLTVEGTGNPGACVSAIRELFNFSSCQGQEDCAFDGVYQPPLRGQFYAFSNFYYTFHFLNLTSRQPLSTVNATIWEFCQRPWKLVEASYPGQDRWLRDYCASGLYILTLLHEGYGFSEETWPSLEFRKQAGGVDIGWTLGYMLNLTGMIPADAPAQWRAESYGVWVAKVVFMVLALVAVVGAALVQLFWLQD
Protocol: as §1, §2, §3, §4

[5] = target: rP2Y6 (Rattus norvegicus, UniProt Q63371); assay: Inhibition of UDP binding at rP2Y6; details: read-out: rP2Y6 % inhibition of UDP binding at 100 μM, n = 3, mean ± SEM
rP2Y6, sequence (Q63371 whole entry): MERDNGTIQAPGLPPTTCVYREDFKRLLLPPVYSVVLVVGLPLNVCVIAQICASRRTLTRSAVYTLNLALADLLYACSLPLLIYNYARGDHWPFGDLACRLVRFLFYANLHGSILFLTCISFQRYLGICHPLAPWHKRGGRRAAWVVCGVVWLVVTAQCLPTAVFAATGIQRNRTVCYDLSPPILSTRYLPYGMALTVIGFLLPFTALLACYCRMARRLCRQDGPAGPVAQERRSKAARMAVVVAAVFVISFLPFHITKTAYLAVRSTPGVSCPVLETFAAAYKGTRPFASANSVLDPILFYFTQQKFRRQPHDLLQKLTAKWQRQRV

[6] = target: hP2Y12 (Homo sapiens, UniProt Q9H244); assay: Inhibition of [3H]PSB-0413 binding at hP2Y12; details: mean ± SEM, read-out: hP2Y12 % Inhibition of [^3H]PSB-0413 Binding at 10 μM, n = 3
hP2Y12, sequence (Q9H244 whole entry): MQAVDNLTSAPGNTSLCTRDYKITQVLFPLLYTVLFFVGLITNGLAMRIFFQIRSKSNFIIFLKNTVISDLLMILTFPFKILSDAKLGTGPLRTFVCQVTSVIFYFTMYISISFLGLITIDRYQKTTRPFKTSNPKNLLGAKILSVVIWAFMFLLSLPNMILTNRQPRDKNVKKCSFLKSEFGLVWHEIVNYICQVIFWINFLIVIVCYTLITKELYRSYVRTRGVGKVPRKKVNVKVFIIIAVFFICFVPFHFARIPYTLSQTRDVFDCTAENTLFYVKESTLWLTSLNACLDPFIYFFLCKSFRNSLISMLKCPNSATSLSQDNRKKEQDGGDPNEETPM
Protocol: In table 2 inhibition data of selected examples at human P2Y receptor subtypes were collected. It can be seen that no compound was identified that inhibited P2Y receptors at high concentrations of 100 μM and 10 μM, respectively.

Structure (SMILES)	inhibition at 1000 µM [1]	Ki [1]	Ki [2]	inhibition at 1000 µM [3]	Ki [3]	inhibition at 1000 µM ([4]; human NTPDase8, ATP 320 μM)	Ki [4]	inhibition at 100 µM [5]	inhibition at 10 µM [6]	Ki ([4]; human NTPDase8, CE method, ATP 320 μM, Km 46 μM)
CCOP(=O)(CCNC(=O)CNC(=O)[C@H]1O[C@@H](n2ccc(=O)[nH]c2=O)C(O)C1O)OCC (stereo in doubt) [Compound 8, 2-[2-((2S,3R,4S,5R)-5-(2,4-Dioxo-3,4-dihydropyrimidin-1(2H)-yl)-3,4-dihydroxy-tetrahydrofurane-2-carboxamido)ethaneamido]ethylphosphonic acid diethylester]	0%	> 50 µM	116 ± 24 µM	22%	> 200 µM	0%	> 100 µM	9 ± 13%	2 ± 3%	
CCOP(=O)(CNC(=O)CCCNC(=O)[C@H]1O[C@@H](n2ccc(=O)[nH]c2=O)C(O)C1O)OCC (stereo in doubt) [Compound 7, 4-[(2S,3R,4S,5R)-5-(2,4-Dioxo-3,4-dihydropyrimidin-1(2H)-yl)-3,4-dihydroxy-tetrahydrofurane-2-carboxamido]butaneamidomethylphosphonic acid diethylester]	45%	> 50 µM	29.2 ± 2.7 µM	0%	> 200 µM	0%	> 100 µM	-3 ± 11%	2 ± 8%	
CCOP(=O)(Cc1ccc(NC(=O)CCCNC(=O)[C@H]2O[C@@H](n3ccc(=O)[nH]c3=O)C(O)C2O)cc1)OCC (stereo in doubt) [Compound 4, 4-[4-((2S,3R,4S,5R)-5-(2,4-Dioxo-3,4-dihydropyrimidin-1(2H)-yl)-3,4-dihydroxy-tetrahydrofurane-2-carboxamido)butaneamido]benzylphosphonic acid diethylester]		182 ± 24.3 µM	210 ± 25.3 µM	48%	> 200 µM			-8 ± 11%	6 ± 4%	242 ± 39.3 µM
CCOP(=O)(CNC(=O)CCNC(=O)[C@H]1O[C@@H](n2ccc(=O)[nH]c2=O)[C@H](O)[C@@H]1O)OCC [Compound 6, 3-[(2S,3R,4S,5R)-5-(2,4-Dioxo-3,4-dihydropyrimidin-1(2H)-yl)-3,4-dihydroxy-tetrahydrofurane-2-carboxamido]pronaneamidomethylphosphonic acid diethylester]	0%	> 50 µM	167 ± 21 µM	0%	> 200 µM	0%	> 100 µM	-3 ± 2%	7 ± 5%	
